This is an account of results in patent US20260124201A1, “CYCLOPENTANE COMPOUND” (Kissei Pharmaceutical Co., Ltd., priority 2022, published 2026).

For one experiment, the target named is T1, human OX2R (Homo sapiens, UniProt O43614).
T1 construct: expressed in transfected cells
T1 sequence (O43614 1-444): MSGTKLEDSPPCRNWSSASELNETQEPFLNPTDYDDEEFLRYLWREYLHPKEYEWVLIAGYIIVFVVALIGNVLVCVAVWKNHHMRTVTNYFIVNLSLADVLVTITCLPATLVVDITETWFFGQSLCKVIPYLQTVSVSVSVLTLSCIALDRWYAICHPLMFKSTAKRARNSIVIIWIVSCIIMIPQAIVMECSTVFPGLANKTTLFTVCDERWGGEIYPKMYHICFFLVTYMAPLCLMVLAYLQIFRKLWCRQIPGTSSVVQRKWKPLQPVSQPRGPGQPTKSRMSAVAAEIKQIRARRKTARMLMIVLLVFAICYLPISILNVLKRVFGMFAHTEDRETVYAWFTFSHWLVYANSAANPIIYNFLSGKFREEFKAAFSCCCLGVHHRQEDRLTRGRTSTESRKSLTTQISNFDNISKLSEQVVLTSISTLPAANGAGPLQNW
Put plainly: Measurement of OX2R agonist activity (intracellular calcium concentration change, Fluo4-AM, FDSS 7000). The format is cell-based. The settings on record: compound concentration 10 μM; human OX2R-expressing CHO-K1 cells; 1 μM human orexin A peptide = 100%, medium alone = 0%. In a few lines: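 Stable human OX2R-expressing CHO-K1 cells, loaded 45 min at 37 °C with 1.14 μM Fluo4-AM plus probenecid in HEPES-buffered HBSS pH 7.4; calcium fluorescence read by FDSS. Activation at 10 μM compound expressed relative to 1 μM human orexin A (100%) and medium alone (0%).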

The next experiment relates to NT1 patients. The following applies: clinical study; cited from earlier work.
In the next experiment the test system is wild-type mice. The settings on record: subcutaneous administration; cited from earlier work.

Turning to `CON(C)C(=O)[C@@]1(Cc2cccc(-c3ncc(F)cn3)c2)C[C@H](F)[C@H](NS(=O)(=O)C2CC2)C1` [Example 60, (1R,3R,4S)-3-(Cyclopropanesulfonamido)-4-fluoro-1-(3-(5-fluoropyrimidin-2-yl)benzyl)-N-methoxy-N-methylcyclopentane-1-carboxamide], the “Act. (%): activation rate of test substance” value (from here on “Act. (%): activation rate”) at human OX2R worked out at 94%.
For the compound `CCS(=O)(=O)N[C@@H]1C[C@@](Cc2cc(-c3ncccn3)ccc2F)(C(=O)N(C)OC)C[C@@H]1F` [Example 61, (1R,3R,4S)-3-(Ethylsulfonamido)-4-fluoro-1-(2-fluoro-5-(pyrimidin-2-yl)benzyl)-N-methoxy-N-methylcyclopentane-1-carboxamide], the “Act. (%): activation rate” value on human OX2R is reported as 105%.
Same read-out and setting: to `CON(C)C(=O)[C@@]1(Cc2ccc(Cl)c(-c3ncc(F)cn3)c2)C[C@H](F)[C@H](NS(C)(=O)=O)C1` [Example 62, (1R,3S,4R)-1-(4-Chloro-3-(5-fluoropyrimidin-2-yl)benzyl)-3-fluoro-N-methoxy-N-methyl-4-(methylsulfonamido)cyclopentane-1-carboxamide] belongs 96%.
For `CCS(=O)(=O)N[C@@H]1C[C@@](Cc2ccc(Cl)c(-c3ncc(F)cn3)c2)(C(=O)N(C)OC)C[C@@H]1F` [Example 63, (1R,3R,4S)-1-(4-Chloro-3-(5-fluoropyrimidin-2-yl)benzyl)-3-(ethylsulfonamido)-4-fluoro-N-methoxy-N-methylcyclopentane-1-carboxamide], the “Act. (%): activation rate” value on human OX2R is 96%.
Same read-out and setting: to `CON(C)C(=O)[C@@]1(Cc2ccc(F)c(-c3ncc(F)cn3)c2)C[C@@H](F)[C@H](NS(C)(=O)=O)C1` [Example 64, (1R,3R,4R)-3-Fluoro-1-(4-fluoro-3-(5-fluoropyrimidin-2-yl)benzyl)-N-methoxy-N-methyl-4-(methylsulfonamido)cyclopentane-1-carboxamide] belongs 101%.
For the compound `CON(C)C(=O)[C@]1(Cc2cccc(-c3ncccn3)c2)C[C@@H](NS(C)(=O)=O)C(F)(F)C1` [Example 65, (1R,4R)-3,3-Difluoro-N-methoxy-N-methyl-4-(methylsulfonamido)-1-(3-(pyrimidin-2-yl)benzyl)cyclopentane-1-carboxamide], the “Act. (%): activation rate” value at human OX2R is listed as 86%.
`CON(C)C(=O)[C@]1(Cc2cccc(-c3ncc(F)cn3)c2)C[C@@H](NS(C)(=O)=O)C(F)(F)C1` [Example 66, (1R,4R)-3,3-Difluoro-1-(3-(5-fluoropyrimidin-2-yl)benzyl)-N-methoxy-N-methyl-4-(methylsulfonamido)cyclopentane-1-carboxamide]: at human OX2R, the “Act. (%): activation rate” value is 95%.
The same measure, in the same setting: the figure for `CO[C@H]1C[C@](Cc2cccc(-c3ncc(F)cn3)c2)(C(=O)N(C)OC)C[C@H]1NS(C)(=O)=O` [Example 67, (1R,3S,4R)-1-(3-(5-Fluoropyrimidin-2-yl)benzyl)-N,3-dimethoxy-N-methyl-4-(methylsulfonamido)cyclopentane-1-carboxamide] is 88%.
For `CO[C@@H]1C[C@](Cc2cccc(-c3ncc(F)cn3)c2)(C(=O)N(C)OC)C[C@H]1NS(C)(=O)=O` [Example 68], the “Act. (%): activation rate” value on human OX2R turned out to be 91%.
For `COC(=O)N1CCC[C@H](NS(C)(=O)=O)[C@@H]1CO[C@H]1CC[C@@H](c2ccccc2)CC1` [TAK-925], the “wakefulness and daytime sleepiness” value in the experiment on NT1 patients is “maintaining wakefulness and reducing daytime sleepiness”. For the same compound, the wake time result in the experiment on wild-type mice is “prolonging of wake time”.
